Results: patent US11639350B2, “Heteroaryldihydropyrimidine derivatives and methods of treating hepatitis B infections” (Janssen Pharmaceutica NV, priority 2018, dated 2023)

What was measured:
HBV = HBV inhibitory activity: HBV DNA in the culture medium of HepG2.2.15 cells by q-PCR; type: cell-based; conditions: Hepatitis B virus, HepG2.2.15, 144 h, HepG2.2.15 cells, 6 days of compound treatment, HBV DNA in culture medium by q-PCR, highest concentration 10 μM; read-out: EC50
In short: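 Supernatant HBV DNA quantified by q-PCR after a 6-day compound exposure, with one mid-course medium change, of HepG2.2.15 cells (stably integrated HBV; 40,000 per well, 2% FBS). Eight-point 3-fold series topped at 10 μM for antiviral EC50; separate plates of 5,000 cells per well with 100 μM top give CC50.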

[1] = Cytotoxicity determination in HepG2.2.15 cells (CCK-8); type: cell-based; conditions: human, 6 days of compound treatment, CCK-8, highest concentration 100 μM
In short: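 CC50 is from CCK-8 absorbance (450 nm, 630 nm reference) after 2.5 h with reagent. Before that, compounds were applied for six days, top concentration 100 μM, eight threefold dilutions, one mid-course medium change, to stably HBV-integrated HepG2.2.15 cells plated at 5,000/well in 2% FBS.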

SMILES | EC50 (HBV) [nM] | CC50 at 6 days [1] [nM]
COC(=O)C1=C(C2CCN(S(=O)(=O)C(C)(C)C(=O)O)CC2)NC(c2nccs2)=NC1c1ccc(F)cc1Cl (centres unmarked) [Compound 7, 2-((4-(6-(2-Chloro-4-fluorophenyl)-5-(methoxycarbonyl)-2-(thiazol-2-yl)-3,6-dihydro-pyrimidin-4-yl)piperidin-1-yl)sulfonyl)-2-methylpropanoic Acid] | 168 | > 100000
COC(=O)C1=C([C@H]2CC[C@H](C(=O)O)CC2)NC(c2nccs2)=NC1c1cccc(F)c1Cl (stereo partly drawn) [Compound 17, trans-4-(6-(2-Chloro-3-fluorophenyl)-5-(methoxycarbonyl)-2-(thiazol-2-yl)-3,6-dihydropyrimidin-4-yl)cyclohexanecarboxylic Acid] | 300 | 93800
COC(=O)C1=C(C2(F)CCN(S(C)(=O)=O)CC2)NC(c2nccs2)=NC1c1cccc(F)c1Cl (centres unmarked) [Compound 36, Methyl 4-(2-chloro-3-fluorophenyl)-6-(4-fluoro-1-(methylsulfonyl)-piperidin-4-yl)-2-(thiazol-2-yl)-1,4-dihydropyrimidine-5-carboxylate] | 153 | 20700
COC(=O)C1=C(C2CCOCC2)NC(c2nccs2)=NC1c1ccc(F)cc1Cl (centres unmarked) [Compound 51, Methyl 4-(2-chloro-4-fluorophenyl)-6-(tetrahydro-2H-pyran-4-yl)-2-(thiazol-2-yl)-1,4-dihydropyrimidine-5-carboxylate] | 112 | 9900
COC(=O)C1=C(C2CCN(C(=O)C(C)(C)C)C2)NC(c2nccs2)=NC1c1ccc(F)cc1Cl (centres unmarked) [Compound 68, Methyl 4-(2-chloro-4-fluorophenyl)-6-(1-pivaloylpyrrolidin-3-yl)-2-(thiazol-2-yl)-1,4-dihydropyrimidine-5-carboxylate] | 581 | 72900
COC(=O)C1=C(C2CCC(C(=O)O)C2)NC(c2nccs2)=NC1c1cccc(F)c1Cl (centres unmarked) [Compound 77, 3-(6-(2-Chloro-3-fluorophenyl)-5-(methoxycarbonyl)-2-(thiazol-2-yl)-3,6-dihydropyrimidin-4-yl)cyclopentanecarboxylic Acid] | 71 | 34200
COC(=O)C1=C(C2CN(S(=O)(=O)C3CCC3)C2)NC(c2nccs2)=NC1c1ccc(F)cc1Cl (centres unmarked) [Compound 80, Methyl 4-(2-chloro-4-fluorophenyl)-6-(1-(cyclobutylsulfonyl)-azetidin-3-yl)-2-(thiazol-2-yl)-1,4-dihydropyrimidine-5-carboxylate] | 107 | 6300
CCNS(=O)(=O)N1CC(C2=C(C(=O)OC)C(c3ccc(F)cc3Cl)N=C(c3nccs3)N2)C1 (centres unmarked) [Compound 81, 4-(2-Chloro-4-fluoro-phenyl)-6-(1-ethylsulfamoyl-azetidin-3-yl)-2-thiazol-2-yl-1,4-dihydro-pyrimidine-5-carboxylic Acid Methyl Ester] | 119 | 10500
COC(=O)C1=C(C2CN(S(=O)(=O)C3CCCCC3)C2)NC(c2nccs2)=NC1c1ccc(F)cc1Cl (centres unmarked) [Compound 82, Methyl 4-(2-chloro-4-fluorophenyl)-6-(1-(cyclohexylsulfonyl)-azetidin-3-yl)-2-(thiazol-2-yl)-1,4-dihydropyrimidine-5-carboxylate] | 197 | 6900
COC(=O)C1=C(C2CC(C(=O)O)C2)NC(c2nccs2)=NC1c1ccc(F)cc1Cl (centres unmarked) [Compound 86, 6-(3-Carboxy-cyclobutyl)-4-(2-chloro-4-fluoro-phenyl)-2-thiazol-2-yl-1,4-dihydro-pyrimidine-5-carboxylic acid methyl ester] | 110 | 21600
CCOC(=O)C1=C(C2CCN(S(C)(=O)=O)CC2)NC(c2nccs2)=NC1c1cccc(F)c1Cl (centres unmarked) [Compound 96B, Ethyl 4-(2-chloro-3-fluorophenyl)-6-(1-(methylsulfonyl)piperidin-4-yl)-2-(thiazol-2-yl)-1,4-dihydropyrimidine-5-carboxylate] | 130 | 21200
COC(=O)C1=C(C2CCN(S(C)(=O)=O)CC2)NC(c2nccs2)=NC1c1ccc(Cl)cc1F (centres unmarked) [Compound 97B, 4-(4-Chloro-2-fluoro-phenyl)-6-(1-methanesulfonyl-pip-eridin-4-yl)-2-thiazol-2-yl-1,4-dihydro-pyrimidine-5-carboxylic Acid Methyl Ester] | 47 | > 100000
COC(=O)C1=C(C2CCN(S(=O)(=O)C3CC3)CC2)NC(c2nccs2)=NC1c1ccc(F)cc1Cl (centres unmarked) [Compound 100, Methyl 4-(2-chloro-4-fluorophenyl)-6-(1-(cyclopropylsulfonyl)-piperidin-4-yl)-2-(thiazol-2-yl)-1,4-dihydropyrimidine-5-carboxylate] | 166 | 7200
CCS(=O)(=O)N1CCC(C2=C(C(=O)OC)C(c3ccc(F)cc3Cl)N=C(c3nccs3)N2)CC1 (centres unmarked) [Compound 101, Methyl 4-(2-chloro-4-fluorophenyl)-6-(1-(ethylsulfonyl)piperidin-4-yl)-2-(thiazol-2-yl)-1,4-dihydropyrimidine-5-carboxylate] | 210 | 38000
COC(=O)C1=C(C2CCN(C(=O)C3CC3)CC2)NC(c2nccs2)=NC1c1ccc(F)cc1Cl (centres unmarked) [Compound 102, Methyl 4-(2-chloro-4-fluorophenyl)-6-(1-(cyclopropanecarbonyl)-piperidin-4-yl)-2-(thiazol-2-yl)-1,4-dihydropyrimidine-5-carboxylate] | 130 | 57000
COC(=O)C1=C(C2CCN(S(C)(=O)=O)CC2)NC(c2nccs2)=NC1c1ccc(F)cc1Cl (centres unmarked) [Compound 103, Methyl 4-(2-chloro-4-fluorophenyl)-6-(1-(methylsulfonyl)-piperidin-4-yl)-2-(thiazol-2-yl)-1,4-dihydropyrimidine-5-carboxylate] | 501 | 87000
COC(=O)C1=C(C2CCN(S(=O)(=O)CCC(=O)O)CC2)NC(c2nccs2)=NC1c1ccc(F)cc1Cl (centres unmarked) [Compound 105, 3-((4-(6-(2-Chloro-4-fluorophenyl)-5-(methoxycarbonyl)-2-(thiazol-2-yl)-3,6-dihydropyrimidin-4-yl)piperidin-1-yl)sulfonyl)propanoic Acid] | 150 | 14400
COC(=O)C1=C(C2CCN(S(=O)(=O)CC(=O)O)CC2)NC(c2nccs2)=NC1c1ccc(F)cc1Cl (centres unmarked) [Compound 107, 2-((4-(6-(2-Chloro-4-fluorophenyl)-5-(methoxycarbonyl)-2-(thiazol-2-yl)-3,6-dihydropyrimidin-4-yl)piperidin-1-yl)sulfonyl)acetic Acid] | 248 | 51400
COC(=O)C1=C(C2CCN(C(=O)C3(C(=O)OC)CC3)CC2)NC(c2nccs2)=NC1c1ccc(F)cc1Cl (centres unmarked) [Compound 108, Methyl-4-(2-chloro-4-fluorophenyl)-6-(1-(1-(methoxycarbonyl)-cyclopropane-1-carbonyl)piperidin-4-yl)-2-(thiazol-2-yl)-1,4-dihydropyrimidine-5-carboxylate] | 77 | 26900
COC(=O)C1=C(C2CCN(S(C)(=O)=O)CC2)NC(c2nccs2)=NC1c1cccc(F)c1Cl (centres unmarked) [Compound 112, Methyl 4-(2-chloro-3-fluorophenyl)-6-(1-(methylsulfonyl)-piperidin-4-yl)-2-(thiazol-2-yl)-1,4-dihydropyrimidine-5-carboxylate] | 293 | 43200
COC(=O)C1=C(C2CCN(S(=O)(=O)CCC(=O)O)CC2)NC(c2nccs2)=NC1c1cccc(F)c1Cl (centres unmarked) [Compound 114, 3-((4-(6-(2-Chloro-3-fluorophenyl)-5-(methoxycarbonyl)-2-(thiazol-2-yl)-3,6-dihydro-pyrimidin-4-yl)piperidin-1-yl)sulfonyl)propanoic Acid] | 40 | 27500
COC(=O)C1=C(C2CCN(S(=O)(=O)c3cccc(C(=O)O)c3)CC2)NC(c2nccs2)=NC1c1cccc(F)c1Cl (centres unmarked) [Compound 118, 3-((4-(6-(2-Chloro-3-fluorophenyl)-5-(methoxycarbonyl)-2-(thiazol-2-yl)-3,6-dihydropyrimidin-4-yl)piperidin-1-yl)sulfonyl)benzoic Acid] | 15 | 59100
COC(=O)C1=C(C2CCN(C(=O)CO)CC2)NC(c2nccs2)=NC1c1ccc(F)cc1Cl (centres unmarked) [Compound 122, Methyl 4-(2-chloro-4-fluorophenyl)-6-(1-(2-hydroxyacetyl)-piperidin-4-yl)-2-(thiazol-2-yl)-1,4-dihydropyrimidine-5-carboxylate] | 394 | 5100
COC(=O)C1=C(C2CCN(C(=O)CNC(=O)OC(C)(C)C)CC2)NC(c2nccs2)=NC1c1ccc(F)cc1Cl (centres unmarked) [Compound 129, 6-[1-(2-tert-Butoxycarbonylamino-acetyl)-piperidin-4-yl]-4-(2-chloro-4-fluoro-phenyl)-2-thiazol-2-yl-1,4-dihydro-pyrimidine-5-carboxylic Acid Methyl Ester] | 55 | 28200
COC(=O)C1=C(C2CN(S(=O)(=O)c3ccccc3)C2)NC(c2nccs2)=NC1c1ccc(F)cc1Cl (centres unmarked) [Compound 130, 6-(1-Benzenesulfonyl-azetidin-3-yl)-4-(2-chloro-4-fluoro-phenyl)-2-thiazol-2-yl-1,4-dihydro-pyrimidine-5-carboxylic acid methyl ester] | 550 | > 10000
